# Assay results as given in ChEMBL document CHEMBL5032533, “Design, synthesis and anti-TNBC activity of Azeliragon triazole analogues” (Bioorg Med Chem Lett, 2021).
# System: SUM149PT
# Experiment: Cytotoxicity against human triple negative SUM149PT cells assessed as cell viability measured by MTS assay
# Format: functional, cell-based
row,Structure (SMILES),IC50 [µM]
1,CCCCc1nc(-c2ccc(OCCCN(CC)CC)cc2)nn1-c1ccc(-c2ccc(C(=O)OCC)cc2)cc1,0.328
2,CCCCc1nc(-c2ccc(OCCCN(CC)CC)cc2)nn1-c1ccc(-c2ccc(Cl)cc2)cc1,0.22
3,CCCCc1nc(-c2ccc(OCCCN(CC)CC)cc2)nn1-c1ccc(-c2ccc(OC(F)(F)F)cc2)cc1,0.664
4,CCCCc1nc(-c2ccc(OCCCN(CC)CC)cc2)nn1-c1ccc(-c2ccc(C)cc2)cc1,0.267
5,CCCCc1nc(-c2ccc(OCCCN(CC)CC)cc2)nn1-c1ccc(-c2ccc(C#N)cc2)cc1,5.43
6,CCCCc1nc(-c2ccc(OCCCN(CC)CC)cc2)nn1-c1ccc(Oc2ccc(Cl)cc2)cc1,6.29
7,CCCCOc1ccc(-c2nc(CCCC)n(-c3ccc(Oc4ccc(Cl)cc4)cc3)n2)cc1,16
8,CCCCc1nc(-c2ccc(OCCCN(CC)CC)cc2)nn1-c1ccc(Oc2ccccc2)cc1,0.538
9,CCCCc1nc(-c2ccc(OCCOCC)cc2)nn1-c1ccc(Oc2ccc(Cl)cc2)cc1,18.6
10,CCCCc1nc(-c2ccc(OCCCN(CC)CC)cc2)nn1-c1ccc(-c2ccnn2C)cc1,0.665
11,CCCCc1nc(-c2ccc(OCCCN(CC)CC)cc2)nn1-c1ccc(-c2ccc(OC)cc2)cc1,0.588
12,CCN(CC)CCCOc1ccc(-c2nc(CCOC)n(-c3ccc(Oc4ccc(Cl)cc4)cc3)n2)cc1,12.5
13,CCCCc1nc(-c2ccc(OCCC)cc2)nn1-c1ccc(Oc2ccccc2)cc1,13.7
14,CCCCc1nc(-c2ccc(OCCN3CCCCC3)cc2)nn1-c1ccc(Oc2ccc(Cl)cc2)cc1,5.68
15,CCCCc1nc(-c2ccc(OCCCN(CC)CC)cc2)nn1-c1ccc(-c2ccc(OC)cc2OC)cc1,0.487
16,CCCCc1nc(-c2ccc(OCCCN(CC)CC)cc2)cn1-c1ccc(Oc2ccc(Cl)cc2)cc1 [AZELIRAGON],5.29
